In patent publication US9320739B2 (AMBIT BIOSCIENCES CORPORATION, priority 2008, dated 2016) one finds S35 data, which are given here for 31 compounds.

For the experiment, the system named is panel of 290 distinct kinases (321 in the larger panel), excluding mutant variants.
The mark [1] stands for this setting: no asterisk: panel of 290 distinct kinases.
The mark [2] stands for this setting: asterisk: panel of 321 distinct kinases, fraction of kinases inhibited 65% or greater.
Where [3] appears, read: asterisk: panel of 321 distinct kinases.

Read-outs that look alike come from different tables or passages of the source.

Procedure: Competition binding assays used herein were developed, validated and performed as described in Fabian et al., Nature Biotechnology 2005, 23, 329-336. […] The liganded beads were blocked with excess biotin and washed with blocking buffer (SeaBlock (Pierce), 1% BSA, 0.05% Tween 20, 1 mM DTT) to remove unbound ligand and to reduce non-specific binding. […] Test compounds were prepared as 100× stocks in DMSO and rapidly diluted into the aqueous environment. DMSO was added to control assays lacking a test compound. Primary screen interactions were performed in polypropylene 384-well plates in a final volume of 34 μL, while Kd determinations were performed in polystyrene 96-well plates in a final volume of 135 pt. […] The kinase concentration in the eluates was measured by quantitative PCR. Each kinase was tested individually against each compound. Kds were determined using eleven serial threefold dilutions. A selectivity score, which is a quantitative measure of selectivity of a compound against a panel of enzymes, may be calculated for a compound by dividing the number of enzymes for which a compound meets a set criteria, (for example, a binding constant of 100 nM or less), by the total number of enzymes tested. […] (Note, for those compounds tested in a larger kinase panel, as indicated by an asterisk (*) next to the S35 score, the divisor is 321 (i.e. the larger panel contains 321 distinct kinases, excluding mutant variants.)).

Regarding `COc1cc2ncnc(Oc3cccc(NC(=O)Nc4cc(C(C)(F)F)nn4-c4cncc(F)c4)c3)c2cc1OC` [Ex 316, 1-(3-(1,1-difluoroethyl)-1-(5-fluoropyridin-3-yl)-1H-pyrazol-5-yl)-3-(3-(6,7-dimethoxyquinazolin-4-yloxy)phenyl)urea], under setting [1], the S35 entry was “C (0.20 < C ≦ 0.40)”. As for `COc1cc2ncnc(Oc3cccc(NC(=O)Nc4cc(C(C)(F)F)nn4-c4cccnc4)c3)c2cc1OC` [Ex 311, 1-(3-(1,1-difluoroethyl)-1-(pyridin-3-yl)-1H-pyrazol-5-yl)-3-(3-(6,7-dimethoxyquinazolin-4-yloxy)phenyl)urea], the S35 entry under setting [1] is reported as “C (0.20 < C ≦ 0.40)”. Same read-out and setting: the result for `COc1cc2ncnc(Oc3cccc(NC(=O)Nc4cc(C(C)C)nn4-c4ccccc4)c3)c2cc1OC` [Ex 324, 1-(3-(6,7-dimethoxyquinazolin-4-yloxy)phenyl)-3-(3-isopropyl-1-phenyl-1H-pyrazol-5-yl)urea] reads “D (D > 0.40)”; that for `COc1cc2ncnc(Oc3cccc(NC(=O)Nc4cc(C(C)(F)F)nn4-c4ccccc4)c3)c2cc1OC` [Ex 318, 1-(3-(1,1-difluoroethyl)-1-phenyl-1H-pyrazol-5-yl)-3-(3-(6,7-dimethoxyquinazolin-4-yloxy)phenyl)urea], “C (0.20 < C ≦ 0.40)”. As for `COc1cc2ncnc(Sc3cccc(NC(=O)Nc4cc(C5(C(F)(F)F)CC5)nn4-c4ccc(C)cc4)c3)c2cc1OC` [Ex 347, 1-(3-(6,7-dimethoxyquinazolin-4-ylthio)phenyl)-3-(1-p-tolyl-3-(1-(trifluoromethyl)cyclopropyl)-1H-pyrazol-5-yl)urea], the S35 result under setting [1] is “D (D > 0.40)”. Turning to `COc1cc2ncnc(Oc3cccc(NC(=O)Nc4cc(C(C)(C)C)nn4C4CCCCC4)c3)c2cc1OC` [Ex 330, 1-(3-tert-butyl-1-cyclohexyl-1H-pyrazol-5-yl)-3-(3-(6,7-dimethoxyquinazolin-4-yloxy)phenyl)urea], the S35 result under setting [1] was “C (0.20 < C ≦ 0.40)”. For the compound `COc1cc2ncnc(Oc3cccc(NC(=O)Nc4cc(C(C)C)nn4-c4cccnc4)c3)c2cc1OC` [Ex 350, 1-(3-(6,7-dimethoxyquinazolin-4-yloxy)phenyl)-3-(3-isopropyl-1-(pyridin-3-yl)-1H-pyrazol-5-yl)urea], under setting [1], the S35 result is recorded as “D (D > 0.40)”. Turning to `COc1cc2ncnc(Oc3cccc(NC(=O)Nc4cc(C(C)(C)C)nn4-c4ccnc(C)c4)c3)c2cc1OC` [Ex 320, 1-(3-tert-butyl-1-(2-methylpyridin-4-yl)-1H-pyrazol-5-yl)-3-(3-(6,7-dimethoxyquinazolin-4-yloxy)phenyl)urea], under setting [1], the S35 entry is “D (D > 0.40)”. As for `COc1cc2ncnc(Oc3cccc(NC(=O)Nc4cc(C(C)(C)C)nn4-c4ccc(C#N)cc4)c3)c2cc1OC` [Ex 328, 1-(3-tert-butyl-1-(4-cyanophenyl)-1H-pyrazol-5-yl)-3-(3-(6,7-dimethoxyquinazolin-4-yloxy)phenyl)urea], the S35 entry under setting [1] is recorded as “D (D > 0.40)”. On the same count and under the same terms, the result for `COc1cc2ncnc(Oc3cccc(NC(=O)Nc4cc(C(C)(C)C)nn4-c4cncc(F)c4)c3)c2cc1OC` [Ex 326, 1-(3-tert-butyl-1-(5-fluoropyridin-3-yl)-1H-pyrazol-5-yl)-3-(3-(6,7-dimethoxyquinazolin-4-yloxy)phenyl)urea] reads “D (D > 0.40)”; that for `COc1cc2ncnc(Sc3cccc(NC(=O)Nc4cc(C(C)(C)C(F)(F)F)nn4-c4ccccc4)c3)c2cc1OC` [Ex 307, 1-(3-(6,7-dimethoxyquinazolin-4-ylthio)phenyl)-3-(1-phenyl-3-(1,1,1-trifluoro-2-methylpropan-2-yl)-1H-pyrazol-5-yl)urea], “D (D > 0.40)”; that for `COc1cc2ncnc(Sc3cccc(NC(=O)Nc4cc(C(C)(C)C)nn4-c4cccnc4)c3)c2cc1OC` [Ex 323, 1-(3-tert-butyl-1-(pyridin-3-yl)-1H-pyrazol-5-yl)-3-(3-(6,7-dimethoxyquinazolin-4-ylthio)phenyl)urea], “D (D > 0.40)”. On the same count and under the same terms, the result for `COc1cc2ncnc(Oc3cccc(NC(=O)Nc4cc(C(C)(C)CO)no4)c3)c2cc1OC` [Ex 255, 1-(3-(6,7-dimethoxyquinazolin-4-yloxy)phenyl)-3-(3-(1-hydroxy-2-methylpropan-2-yl)isoxazol-5-yl)urea] reads “C (0.20 < C ≦ 0.40)”. Turning to `COc1cc2ncnc(Sc3cccc(NC(=O)Nc4cc(C(F)(F)F)nn4-c4ccc(C)cc4)c3)c2cc1OC` [Ex 199, 1-[3-(6,7-dimethoxyquinazolin-4-ylthio)phenyl]-3-[1-p-tolyl-3-(trifluoromethyl)-1H-pyrazol-5-yl]urea], the S35 entry under setting [2] was “D* (D > 0.40)”. On to `COc1cc2ncnc(Oc3cccc(NC(=O)Nc4cc(C(C)(C)C)nn4CC(C)C)c3)c2cc1OC` [Ex 332, 1-(3-tert-butyl-1-isobutyl-1H-pyrazol-5-yl)-3-(3-(6,7-dimethoxyquinazolin-4-yloxy)phenyl)urea], for which the S35 entry under setting [1] is on record as “C (0.20 < C ≦ 0.40)”. Turning to `COc1cc2ncnc(Sc3cccc(NC(=O)Nc4cc(C(C)C)nn4-c4ccccc4)c3)c2cc1OC` [Ex 325, 1-(3-(6,7-dimethoxyquinazolin-4-ylthio)phenyl)-3-(3-isopropyl-1-phenyl-1H-pyrazol-5-yl)urea], the S35 entry under setting [1] is on record as “C (0.20 < C ≦ 0.40)”. Same read-out and setting: under `COc1cc2ncnc(Oc3cccc(NC(=O)Nc4cc(C(C)(C)C)nn4-c4ccc(=O)[nH]c4)c3)c2cc1OC` [Ex 317, 1-(3-tert-butyl-1-(6-oxo-1,6-dihydropyridin-3-yl)-1H-pyrazol-5-yl)-3-(3-(6,7-dimethoxyquinazolin-4-yloxy)phenyl)urea] stands “D (D > 0.40)”. Turning to `COc1cc2c(Sc3cccc(NC(=O)Nc4cc(C(C)(C)C)on4)c3)ncnc2cc1OCCN1CCN(CCO)CC1` [Ex 84, 1-(5-tert-butylisoxazol-3-yl)-3-(3-(7-(2-(4-(2-hydroxyethyl)piperazin-1-yl)ethoxy)-6-methoxyquinazolin-4-ylthio)phenyl)urea], the S35 result (no asterisk: panel of 290 distinct kinases, fraction of kinases inhibited 65% or greater) is “D (D > 0.40)”. Turning to `COc1cc2ncnc(Sc3cccc(NC(=O)Nc4cc(C(C)(F)F)nn4-c4ccccc4)c3)c2cc1OC` [Ex 319, 1-(3-(1,1-difluoroethyl)-1-phenyl-1H-pyrazol-5-yl)-3-(3-(6,7-dimethoxyquinazolin-4-ylthio)phenyl)urea], the S35 result under setting [1] was “C (0.20 < C ≦ 0.40)”. The same measure, in the same setting: the result for `COc1cc2ncnc(Oc3cccc(NC(=O)Nc4cc(C(C)(C)C)nn4-c4cccnc4C)c3)c2cc1OC` [Ex 305, 1-(3-tert-butyl-1-(2-methylpyridin-3-yl)-1H-pyrazol-5-yl)-3-(3-(6,7-dimethoxyquinazolin-4-yloxy)phenyl)urea] reads “D (D > 0.40)”; that for `COc1cc2ncnc(Oc3cccc(NC(=O)Nc4cc(C(C)(C)C)nn4-c4ccccn4)c3)c2cc1OC` [Ex 344, 1-(3-tert-Butyl-1-(pyridin-2-yl)-1H-pyrazol-5-yl)-3-(3-(6,7-dimethoxyquinazolin-4-yloxy)phenyl)urea], “C (0.20 < C ≦ 0.40)”. Consider `COCCOc1cc2ncnc(Sc3cccc(NC(=O)Nc4cc(C(F)(F)F)nn4-c4ccc(C)cc4)c3)c2cc1OC` [Ex 243, 1-{3-[6-methoxy-7-(2-methoxyethoxy)quinazolin-4-ylthio]phenyl}-3-[1-p-tolyl-3-(trifluoromethyl)-1H-pyrazol-5-yl]urea], for which the S35 entry under setting [3] was “C * (0.20 < C ≦ 0.40)”. Take `COc1cc2ncnc(Sc3cccc(NC(=O)Nc4cc(C(C)(C)C)nn4C(C)C)c3)c2cc1OC` [Ex 335, 1-(3-tert-butyl-1-isopropyl-1H-pyrazol-5-yl)-3-(3-(6,7-dimethoxyquinazolin-4-ylthio)phenyl)urea]: the S35 entry under setting [1] is recorded as “C (0.20 < C ≦ 0.40)”. On to `COc1cc2ncnc(Sc3cccc(NC(=O)Nc4cc(C(F)(F)F)n(C)n4)c3)c2cc1OC` [Ex 194, 1-[3-(6,7-dimethoxyquinazolin-4-ylthio)phenyl]-3-[1-methyl-5-(trifluoromethyl)-1H-pyrazol-3-yl]urea], for which the S35 result under setting [2] is listed as “C* (0.20 < C ≦ 0.40)”. As to `COc1cc2ncnc(Sc3cccc(NC(=O)Nc4cc(C(C)(C)C)nn4CC(C)C)c3)c2cc1OC` [Ex 333, 1-(3-tert-butyl-1-isobutyl-1H-pyrazol-5-yl)-3-(3-(6,7-dimethoxyquinazolin-4-ylthio)phenyl)urea], under setting [1], the S35 entry was “C (0.20 < C ≦ 0.40)”.

On to `COc1ccc(-n2nc(C(C)(F)F)cc2NC(=O)Nc2cccc(Oc3ncnc4cc(OC)c(OC)cc34)c2)cc1` [Ex 315, 1-(3-(1,1-difluoroethyl)-1-(4-methoxyphenyl)-1H-pyrazol-5-yl)-3-(3-(6,7-dimethoxyquinazolin-4-yloxy)phenyl)urea], for which the S35 result under setting [1] is “D (D > 0.40)”. On the same count and under the same terms, the result for `COc1cc2ncnc(Oc3cccc(NC(=O)Nc4cc(C(F)(F)F)nn4-c4cccc(C)c4)c3)c2cc1OC` [Ex 338, 1-(3-(6,7-dimethoxyquinazolin-4-yloxy)phenyl)-3-(1-m-tolyl-3-(trifluoromethyl)-1H-pyrazol-5-yl)urea] reads “C (0.20 < C ≦ 0.40)”. In the case of `COc1cc2ncnc(Sc3cccc(NC(=O)Nc4cc(C(F)(F)F)n(-c5ccccc5)n4)c3)c2cc1OC` [Ex 170, 1-[3-(6,7-dimethoxyquinazolin-4-ylthio)phenyl]-3-[1-phenyl-5-(trifluoromethyl)-1H-pyrazol-3-yl]urea], the S35 result under setting [2] is reported as “B* (0.10 < B ≦ 0.20)”.

In the case of `COc1cc2ncnc(Oc3cccc(NC(=O)Nc4cc(C(C)(C)C)nn4-c4ccc(C)nc4)c3)c2cc1OC` [Ex 312, 1-(3-tert-butyl-1-(6-methylpyridin-3-yl)-1H-pyrazol-5-yl)-3-(3-(6,7-dimethoxyquinazolin-4-yloxy)phenyl)urea], the S35 result under setting [1] is recorded as “D (D > 0.40)”.

For `COCCOc1cc2ncnc(Oc3cccc(NC(=O)Nc4cc(C(F)(F)F)nn4-c4ccccc4)c3)c2cc1OC` [Ex 221, 1-{3-[6-methoxy-7-(2-methoxyethoxy)quinazolin-4-yloxy]phenyl}-3-[1-phenyl-3-(trifluoromethyl)-1H-pyrazol-5-yl]urea], the S35 result under setting [3] was “C * (0.20 < C ≦ 0.40)”. Turning to `COc1cc2ncnc(Sc3cccc(NC(=O)Nc4cc(C(C)(C)C)nn4-c4ccc(C#N)cc4)c3)c2cc1OC` [Ex 329, 1-(3-tert-butyl-1-(4-cyanophenyl)-1H-pyrazol-5-yl)-3-(3-(6,7-dimethoxyquinazolin-4-ylthio)phenyl)urea], under setting [1], the S35 entry was “D (D > 0.40)”.
